Among the data in patent publication EP4567031A1, “HPK1 INHIBITOR, PREPARATION METHOD THEREFOR, AND USE THEREOF” (Beijing Earthwise Technology Co., Ltd., priority 2022, dated 2024) are EC50 values, retold here.

Structures are written as SMILES.

One test concerns human Pan T cells. Kind of test: Human Pan T cell IL-2 ELISA. The test is classed as cell-based. The following applies: Anti-CD3 and Anti-CD28, 48 hours, supernatant IL-2 ELISA, read-out: IL-2 release, EC50. The method, then:
A compound was dissolved in DMSO to 10 mM, and then diluted three-fold with DMSO to 9 dosages in a 96-well plate. Then, 10 µL of the diluted compound sample was transferred to a 96-well plate with 90 µL of cell culture medium, and the plate was shaken for 5 minutes. Then, 5 µL of the diluted compound sample was transferred to a 96-well plate with 120 µL of cell culture medium, and the plate was shaken for 5 minutes. According to the experimental design diagram, 50 µL of the diluted compound sample was transferred to a cell plate. Final concentrations of the compound in this assay were 10000.00, 5000, 2500, 1250, 625, 312.5, 156.25, 78.125 and 39.063 nM.
The assay was conducted in a 96-well plate. On the first day of the assay, Anti-CD3 was added to the 96-well plate and incubated in a 4 °C refrigerator overnight. On the second day of the assay, human Pan T cells were recovered, centrifuged and counted. The cell density was adjusted to 1*10^6 cells/ml. Then, 100 µL of cells were added to the 96-well plate washed with PBS and added with Anti-CD3; according to the experimental design diagram, 50 µL of diluted Anti-CD28 and 50 µL of the diluted compound were added to each well, centrifuged, and the cell plate was placed and incubated in an incubator for 48 hours; after 48 hours, the plate was centrifuged and the supernatant was collected for IL-2 ELISA.
The signal value of light absorption was converted into a multiple. Multiple = sample value/the average value of control wells. The average value of control wells refers to the value measured in wells with DMSO added. EC50 values were calculated by XLFit (version 5.3.1.3) in Excel. Equation: Y=Bottom + (Top-Bottom) / (1 + (EC50/X) ^ HillSlope). Table 6. Results of cellular activity of the compounds
In general terms: In an ELISA, binding on a coated surface is turned into a signal by an enzyme label.
Take `CO[C@H]1CCCn2c(-c3cc4c(c5c3CNC5=O)Nc3ccc(N5CC6CCC(C5)O6)cc3C4(C)C)cnc21` [Example 196]: the EC50 was 27 nM.

The same test, now with this note: Homo sapiens, T-cell, 48 h, Anti-CD3 and Anti-CD28, supernatant IL-2 ELISA, read-out: IL-2 release, EC50.
For the compound `CC1(C)c2cc(N3CCO[C@@H](C(C)(C)O)C3)ccc2Nc2c1cc(-c1cnn3cc(C(F)F)ccc13)c1c2C(=O)NC1` [Example 169], the EC50 is 6.4 nM.
On the same count and under the same terms, in the case of `COc1ccnc2c(-c3cc4c(c5c3CNC5=O)Nc3ccc(N5CCO[C@@H](C(C)(C)O)C5)cc3C4(C)C)cnn12` [Example 171] it was 6.3 nM; in that of `CC1(C)c2cc(N3CCOCC3)ccc2Nc2c1cc(-c1cnc3c(OC(F)F)nccn13)c1c2C(=O)NC1` [Example 172], 8.1 nM; in that of `Cc1nccn2c(-c3cc4c(c5c3CNC5=O)Nc3ccc(N5CCOCC5)cc3C4(C)C)cnc12` [Example 173], 3.8 nM.
The same measure, in the same setting: in the case of `Cn1c(-c2cc3c(c4c2CNC4=O)Nc2ccc(N4CCO[C@@H](C(C)(C)O)C4)cc2C3(C)C)cnc1N1CCOCC1` [Example 174] it was 39 nM; in that of `CC1(C)c2cc(N3CCO[C@@H](C(C)(C)O)C3)ccc2Nc2c1cc(-c1cnc3c(F)c(C#N)ccn13)c1c2C(=O)NC1` [Example 179], 6.9 nM.
The same measure, in the same setting: as for `CC1(C)c2cc(N3CCOCC3)ccc2Nc2c1cc(-c1cnc3c(OC4COC4)nccn13)c1c2C(=O)NC1` [Example 184], the figure is 14 nM; as for `Cc1ccn2c(-c3cc4c(c5c3CNC5=O)Nc3ccc(N5CCOCC5)cc3C4(C)C)cnc2n1` [Example 185], 2.2 nM.
Consider `COc1ccn2c(-c3cc4c(c5c3CNC5=O)Nc3ccc(N5CCOCC5)cc3C4(C)C)cnc2c1` [Example 186], for which the EC50 was determined as 7.9 nM.
With `CC1(C)c2cc(N3CCOCC3)ccc2Nc2c1cc(-c1cnc3c(C4COC4)nccn13)c1c2C(=O)NC1` [Example 188], the EC50 amounted to 73 nM.
The same measure, in the same setting: in the case of `COc1ccn2c(-c3cc4c(c5c3CNC5=O)Nc3ccc(N5CCOCC5)cc3C4(C)C)cnc2n1` [Example 189] it was 5.7 nM; in that of `CC1(C)c2cc(N3CCOCC3)ccc2Nc2c1cc(-c1cnc3c(C#N)nccn13)c1c2C(=O)NC1` [Example 192], 19 nM.
On to `CC1(C)c2cc(N3CCOCC3)ccc2Nc2c1cc(-c1cnc3c(F)c(C(F)F)ccn13)c1c2C(=O)NC1` [Example 193], for which the EC50 amounted to 9.5 nM.
Still for that read-out and setting: as for `COc1nccn2c(-c3cc4c(c5c3CNC5=O)Nc3ccc(N5CCN6CCOCC6C5)cc3C4(C)C)cnc12` (stereo not shown) [Example 194], the figure is 4.3 nM; as for `COCC1CN(c2ccc3c(c2)C(C)(C)c2cc(-c4cnc5c(OC)nccn45)c4c(c2N3)C(=O)NC4)CCO1` (stereo not shown) [Example 195], 3.7 nM; as for `CC1(C)c2cc(N3CCOCC3)ccc2Nc2c1cc(-c1cnc3nc(C(F)F)ccn13)c1c2C(=O)NC1` [Example 197], 11 nM.
Same read-out and setting: in the case of `CC1(C)c2cc(N3CCOCC3)ccc2Nc2c1cc(-c1cnc3c(F)c(C#N)ccn13)c1c2C(=O)NC1` [Example 198] it was 5.3 nM.
Consider `CC1(C)c2cc(N3CCOCC3)ccc2Nc2c1cc(-c1cnc3c(OC4CC4)nccn13)c1c2C(=O)NC1` [Example 199], for which the EC50 was 24 nM.
As for `COCC1(O)CCN(c2ccc3c(c2)C(C)(C)c2cc(-c4cnc5c(OC)nccn45)c4c(c2N3)C(=O)NC4)CC1` [Example 200], the EC50 was found to be 1.4 nM.
With `COc1nccn2c(-c3cc4c(c5c3CNC5=O)Nc3ccc(N5CCOC6(CC6)C5)cc3C4(C)C)cnc12` [Example 201], the EC50 was found to be 2.7 nM.
Consider `CC1(C)c2cc(N3CCOC(C4(O)CC4)C3)ccc2Nc2c1cc(-c1cnc3cc(C(F)F)ccn13)c1c2C(=O)NC1` (stereo not shown) [Example 205], for which the EC50 was 6.6 nM.
Same read-out and setting: in the case of `CC1(C)c2cc(N3CCOCC3)ccc2Nc2c1cc(-c1cnc3cc(N4CCC4)ccn13)c1c2C(=O)NC1` [Example 206] it was 99 nM.
As to `CC1(C)c2cc(N3CCOCC3)ccc2Nc2c1cc(-c1cnc3cc(N4CC(F)C4)ccn13)c1c2C(=O)NC1` [Example 207], the EC50 was determined as 23 nM.
Still for that read-out and setting: in the case of `CC(C)(O)c1ccn2c(-c3cc4c(c5c3CNC5=O)Nc3ccc(N5CCOCC5)cc3C4(C)C)cnc2c1` [Example 208] it was 16 nM.
Still for that read-out and setting: in the case of `COc1c(F)ccn2c(-c3cc4c(c5c3CNC5=O)Nc3ccc(N5CCOCC5)cc3C4(C)C)cnc12` [Example 209] it was 3.3 nM; in that of `CC1(C)c2cc(N3CCOCC3)ccc2Nc2c1cc(-c1cnc3c(N4CCC4)nccn13)c1c2C(=O)NC1` [Example 211], 55 nM.
Same read-out and setting: as for `C#Cc1ccn2c(-c3cc4c(c5c3CNC5=O)Nc3ccc(N5CCOCC5)cc3C4(C)C)cnc2c1` [Example 216], the figure is 5.4 nM; as for `CC1(C)c2cc(N3CCOCC3)ccc2Nc2c1cc(-c1cnc3cc(OC4COC4)ccn13)c1c2C(=O)NC1` [Example 217], 19 nM; as for `CC1(C)c2cc(N3CCOCC3)ccc2Nc2c1cc(-c1cnc3c(C(F)F)nccn13)c1c2C(=O)NC1` [Example 222], 6.4 nM.
For the compound `CC1(C)c2cc(N3CCOCC3)ccc2Nc2c1cc(-c1cnc3c(OC4CNC4)nccn13)c1c2C(=O)NC1` [Example 224], the EC50 was 33 nM.
On to `COc1ccn2c(-c3cc4c(c5c3CNC5=O)Nc3ccc(N5CCOCC5)cc3C4(C)C)cnc2c1F` [Example 225], for which the EC50 stood at 8.1 nM.
For the compound `COc1nccn2c(-c3cc4c(c5c3CNC5=O)Nc3ccc(N5C6CCC5COC6)cc3C4(C)C)cnc12` [Example 232], the EC50 was found to be 11 nM.
With `CC1(C)c2cc(N3CCOCC3)ccc2Nc2c1cc(-c1cnn3cc(C#N)ccc13)c1c2C(=O)NC1` [Example 237], the EC50 was 8.7 nM.
Regarding `COc1nccn2c(-c3cc4c(c5c3CNC5=O)Nc3ccc(N5CCOCC5=O)cc3C4(C)C)cnc12` [Example 238], the EC50 was 58 nM.
On to `CC1(C)c2cc(N3CCOCC3)ccc2Nc2c1cc(-c1cnc3cc(C#N)cnn13)c1c2C(=O)NC1` [Example 246], for which the EC50 turned out to be 9.2 nM.
Same read-out and setting: in the case of `CC1(C)c2cc(N3CCOCC3)ccc2Nc2c1cc(-c1cnc3nc(N4CC(F)C4)ccn13)c1c2C(=O)NC1` [Example 247] it was 9.2 nM.
Still for that read-out and setting: as for `Cn1cnc2c(-c3cc4c(c5c3CNC5=O)Nc3ccc(N5CCOCC5)cc3C4(C)C)cncc21` [Example 248], the figure is 1.9 nM; as for `CC1(C)c2cc(N3CCOCC3)ccc2Nc2c1cc(-c1nnc3cc(C#N)ccn13)c1c2C(=O)NC1` [Example 249], 4.7 nM; as for `CC1(C)c2cc(N3CCOCC3)ccc2Nc2c1cc(-c1cnc3ncccn13)c1c2C(=O)NC1` [Example 250], 3.1 nM.
Turning to `Cc1c(-c2cc3c(c4c2CNC4=O)Nc2ccc(N4CCOCC4)cc2C3(C)C)cnc2c1NCCO2` [Example 251], the EC50 turned out to be 6.4 nM.
With `CC1(C)c2cc(N3CCOCC3)ccc2Nc2c1cc(-c1cnc3nc(N4CC(O)C4)ccn13)c1c2C(=O)NC1` [Example 253], the EC50 was 54 nM.
The same measure, in the same setting: in the case of `CC1(C)c2cc(N3CCOCC3)ccc2Nc2c1cc(-c1cnc3nc(C4CC4)ccn13)c1c2C(=O)NC1` [Example 254] it was 28 nM; in that of `COc1nccn2c(-c3cc4c(c5c3CNC5=O)Nc3ccc(C5CNC(=O)C5)cc3C4(C)C)cnc12` (stereo not shown) [Example 255], 5 nM.
The same measure, in the same setting: as for `CC1(O)CCN(c2ccc3c(c2)C(C)(C)c2cc(-c4cnc5nc(C(F)F)ccn45)c4c(c2N3)C(=O)NC4)CC1` [Example 256], the figure is 16 nM; as for `CN(C)C(=O)c1ccc2c(c1)C(C)(C)c1cc(-c3cnc4nc(C(F)F)ccn34)c3c(c1N2)C(=O)NC3` [Example 257], 154 nM.

A word on the EC50: it is the midpoint of the concentration-response curve.
